The results in this text go back to US6716574B2, “Osp-C derived peptide fragments” (Dako A/S, priority 1996, dated 2004).

The subject of assay [1] is IgM in serum from a patient with established neuroborreliosis. In words: Western blot with the decapeptide as serodiagnostic test antigen. In kind it is binding, human. To be noted: 10 ug peptide on nitrocellulose, NB serum 1:100, preliminary experiments. How it is done:
After three further washes in TRIS buffered saline with Tween, antibody reactive peptide was detected with alkaline phosphatase-coupled rabbit anti-human immune globulin M (DAKO, Denmark; cat. no. 337). The conjugate was diluted 1:1000 in TRIS buffered saline with 1% BSA and the NC membrane was incubated with colour substrate (BCIP and NBT; 1:500) for 10 minutes.
(In western blotting, separated proteins are transferred to a membrane and probed.)

Assay [2] deals with IgG antibodies in Lyme borreliosis sera. In words: IgG antibodies to the C-terminal decapeptide in Lyme borreliosis sera. It is filed as binding, human.

“NH2-Pro-Val-Val-Ala-Glu-Ser-Pro-Lys-Lys-Pro-COOH (H-PVVAESPKKP-OH; listed as Borrelia garinii) [SEQ ID NO: 1, C-terminal decapeptide of B. burgdorferi sensu lato OspC]”: the “usability as serodiagnostic test antigen in western blot” value in assay [1] is “can be used as a serodiagnostic test antigen”. Besides, the “Lyme borreliosis sera comprising IgG antibodies to the peptide” value in assay [2] is listed as “only few”.
